Assay results as given in patent publication US20260102359A1, “COMBINATION TREATMENT OF DERMAL AND TRANSDERMAL FIBROTIC DISEASES, DISORDERS AND ASSOCIATED PAIN AND INFLAMMATION” (ERESINA, LLC, priority 2022, published 2026).
*1 amine or outer side, *2 acyl side, *3 side chain or, on linkers, in order; H or OH if unused. Where a SMILES comes first, the peptide text is derived from it. Bridges are numbered along the chain shown (N, C = ends). Roman numbers before positions name the chains, in order. [ ]: non-standard residue; d: D form. Actinocin(9to1) = Cc1c2oc3c(C)ccc(C(=O)[*:1])c3nc-2c(C(=O)[*:2])c(N)c1=O; NMeV = CN[C@H](C(=O)O)C(C)C; Sar = CNCC(=O)O

System: hDMFa myofibroblast cells

| SMILES | Compound Myofibroblast Cytotoxicity Activity |
| --- | --- |
| OC1OC[C@H](O)[C@H](O)[C@H]1O (mixture of isomers) [Cmpd 560, L-Arabinose] | ++++ |
| OC[C@H]1O[C@H](O[C@H]2[C@H](O)[C@@H](O)[C@@H](O[C@H]3[C@H](O)[C@@H](O)C(O)O[C@@H]3CO)O[C@@H]2CO)[C@H](O)[C@@H](O)[C@@H]1O (mixture of isomers) [Cmpd 634, Maltotriose] | +++ |
| CC(C)NCC(O)COc1ccc(CC(N)=O)cc1 (racemic) [Cmpd 14, (±)-Atenolol] | +++ |
| CC1CCC(C(C)C)C(O)C1 (racemic) [Cmpd 16, (±)-Menthol] | ++ |
| CCCCCCCCCCCCCCCC(=O)OC(CC(=O)O)C[N+](C)(C)C.[Cl-] (racemic) [Cmpd 17, (±)-Palmitoylcarnitine chloride] | ++ |
| CC1=CCC2CC1C2(C)C (racemic) [Cmpd 18, (±)-α-Pinene] | ++ |
| O[C@H](CS)[C@H](O)CS (racemic) [Cmpd 368, DL-Dithiothreitol] | ++++ |
| CSCCC(N)C(=O)O (racemic) [Cmpd 369, DL-Methionine] | ++ |
| CC(C)(CO)C(O)C(=O)NCCCO (racemic) [Cmpd 370, DL-Panthenol] | +++ |
| Cl.NCCCC(N)(C(=O)O)C(F)F (racemic) [Cmpd 371, DL-α-Difluoromethylornithine (hydrochloride hydrate)] | ++ |
| Cc1c(C)c2c(c(C)c1O)CCC(C)(CCCC(C)CCCC(C)CCCC(C)C)O2 (racemic) [Cmpd 373, DL-α-Tocopherol] | ++ |
| CCC/C=C1\OC(=O)C2=C1CCC=C2 [Cmpd 2, Z-Ligustilide] | ++ |
| C/C=C/c1cc(OC)c(OC)cc1OC [Cmpd 3, α-Asarone] | ++ |
| C=C1CC/C=C(\C)CC[C@@H]2[C@@H]1CC2(C)C [Cmpd 8, β-Caryophyllene] | +++ |
| CCCCC/C=C\C/C=C\C/C=C\CCCCC(=O)O [Cmpd 9, γ-Linolenic Acid] | +++ |
| CC12CCC(CC1=O)C2(C)C (stereo not drawn) [Cmpd 11, (+)-Camphor] | ++ |
| CC1=CC[C@@H]2C[C@H]1C2(C)C [Cmpd 19, (1R)-(+)-α-Pinene] | + |
| CC1=CC(=O)[C@H]2C[C@@H]1C2(C)C [Cmpd 20, (1S)-(−)-Verbenone] | ++ |
| CC1=CC[C@H]2C[C@@H]1C2(C)C [Cmpd 21, (1S)-(-)-α-Pinene] | ++ |
| C=C1CC[C@H]2C[C@@H]1C2(C)C [Cmpd 22, (1S)-(-)-β-Pinene] | ++ |
| Cl.N[C@H](C=O)[C@@H](O)[C@H](O)[C@H](O)CO [Cmpd 23, (2S,3R,4S,5R)-2-Amino-3,4,5,6-tetrahydroxyhexanal hydrochloride] | ++ |

| SMILES | Compound Myofibroblast Cytotoxicity Activity |
| --- | --- |
| C=C(C)[C@@H]1CC=C(C)C(=O)C1 [Cmpd 24, (R)-(−)-Carvone] | ++ |
| C[C@@H](Oc1cc(-c2cnn(C3CCNCC3)c2)cnc1N)c1c(Cl)ccc(F)c1Cl [Cmpd 27, (R)-Crizotinib] | ++++ |
| C=C(C)[C@H]1CC=C(C)C(=O)C1 [Cmpd 28, (S)-(+)-Carvone] | ++ |
| C[C@H](Oc1cc(-c2cnn(C3CCNCC3)c2)cnc1N)c1c(Cl)ccc(F)c1Cl [Cmpd 29, (S)-Crizotinib] | ++++ |
| C[C@H](C(=O)O)c1ccc(-c2ccccc2)c(F)c1 [Cmpd 30, (S)-Flurbiprofen] | ++++ |
| COc1ccc2cc([C@H](C)C(=O)O)ccc2c1 [Cmpd 32, (S)-Naproxen] | ++ |
| CCCCCCCC/C=C\CCCCCCCC(=O)OCC(C[N+](C)(C)C)OC(=O)CCCCCCC/C=C\CCCCCCCC.[Cl-] (centres unmarked) [Cmpd 33, 1,2-Dioleoyl-3-trimethylammoniumpropane (chloride)] | +++ |
| Oc1ncnc2[nH]ncc12 [Cmpd 37] | + |
| C=CCCCCCCCCC(=O)O [Cmpd 39, 10-Undecenoic acid] | ++ |
| C=CCNC1=C2C[C@@H](C)C[C@H](OC)[C@H](O)[C@@H](C)/C=C(\C)[C@H](OC(N)=O)[C@@H](OC)/C=C\C=C(/C)C(=O)NC(=CC1=O)C2=O [Cmpd 40, 17-AAG (KOS953)] | +++ |
| CCCCCCCCCCCCCCO [Cmpd 43, 1-Tetradecanol] | + |
| O=CC[C@H](O)[C@H](O)CO [Cmpd 46, 2-Deoxy-D-ribose] | ++++ |
| O=c1ccn([C@H]2C[C@H](O)[C@@H](CO)O2)c(=O)[nH]1 [Cmpd 47, 2-Deoxyuridine] | ++ |
| O=C(O)c1cc(O)cc(O)c1 [Cmpd 50, 3-5-Dihydroxybenzoic Acid] | ++ |
| CC(=O)O[C@@H]1CC[C@@]2(C)[C@@H](CC[C@]3(C)[C@@H]2C(=O)C=C2[C@@H]4[C@@H](C)[C@H](C)CC[C@]4(C)CC[C@]23C)[C@@]1(C)C(=O)O [Cmpd 51, 3-acetyl-11-keto-β-Boswellic Acid] | +++++ |
| Cc1occc(=O)c1O [Cmpd 52] | ++ |
| CCCCC1OC(=O)c2ccccc21 (centres unmarked) [Cmpd 54, 3-n-Butylphathlide] | ++ |
| NCc1ccc(C(=O)O)cc1 [Cmpd 56] | ++ |
| Nc1ccc(C(=O)O)c(O)c1 [Cmpd 59, 4-Aminosalicylic acid] | ++ |
| O=C(O)Cc1ccc(-c2ccccc2)cc1 [Cmpd 60, 4-Biphenylacetic acid] | ++ |
| O=C(O)c1ccc(O)cc1 [Cmpd 61] | ++++ |

| SMILES | Compound Myofibroblast Cytotoxicity Activity |
| --- | --- |
| Cc1cc(=O)oc2cc(O)ccc12 [Cmpd 63, 4-Methylumbelliferone (4-MU)] | ++++ |
| Nc1ncn([C@@H]2O[C@H](CO)[C@@H](O)[C@H]2O)c(=O)n1 [Cmpd 64, 5-Azacytidine] | +++ |
| O=Cc1ccc(CO)o1 [Cmpd 66] | ++ |
| O=c1ccc2cc(O)c(O)cc2o1 [Cmpd 69] | ++ |
| Br.NCCc1cc(O)c(O)cc1O [Cmpd 72] | ++++ |
| Oc1cccc2cccnc12 [Cmpd 74, 8-Hydroxyquinoline] | ++ |
| CC(=O)O[C@H]1CC[C@@]2(C)C(=CC[C@@H]3[C@@H]2CC[C@]2(C)C(c4cccnc4)=CC[C@@H]32)C1 [Cmpd 75, Abiraterone acetate] | +++ |
| CC1(C)CCC(c2ccc(Cl)cc2)=C(CN2CCN(c3ccc(C(=O)NS(=O)(=O)c4ccc(N[C@H](CCN5CCOCC5)CSc5ccccc5)c(S(=O)(=O)C(F)(F)F)c4)cc3)CC2)C1 [Cmpd 77, ABT-263 (Navitoclax)] | +++++ |
| CC(=O)Nc1ccccc1 [Cmpd 79, Acetanilide] | ++++ |
| CC(=O)O.Cc1cc2c(C(C)C)c(O)c(O)c(C=O)c2c(O)c1-c1c(C)cc2c(C(C)C)c(O)c(O)c(C=O)c2c1O [Cmpd 80, Acetate gossypol] | +++++ |
| CC(=O)NO [Cmpd 81, Acetohydroxamic Acid] | ++++ |
| CC(=O)c1ccccc1 [Cmpd 82, Acetophenone] | ++ |
| CC(=O)OCC[N+](C)(C)C.[I-] [Cmpd 83, Acetylcholine iodide] | ++ |
| Cc1c2oc3c(C)ccc(C(=O)N[C@@H]4C(=O)N[C@H](C(C)C)C(=O)N5CCC[C@H]5C(=O)N(C)CC(=O)N(C)[C@@H](C(C)C)C(=O)O[C@@H]4C)c3nc-2c(C(=O)N[C@@H]2C(=O)N[C@H](C(C)C)C(=O)N3CCC[C@H]3C(=O)N(C)CC(=O)N(C)[C@@H](C(C)C)C(=O)O[C@@H]2C)c(N)c1=O [Cmpd 86, Actinomycin D] (I: T[dV]P[Sar][NMeV] / II: T[dV]P[Sar][NMeV]; ester I:1-I:C, II:1-II:C; linker I:N-II:N via Actinocin(9to1)) | ++ |
| CC(C)(C)C(=O)OCOP(=O)(COCCn1cnc2c(N)ncnc21)OCOC(=O)C(C)(C)C [Cmpd 89, Adefovir Dipivoxil] | ++++ |
| Nc1ncnc2c1ncn2[C@@H]1O[C@H](COP(=O)(O)OP(=O)(O)OP(=O)(O)O)[C@@H](O)[C@H]1O [Cmpd 91, Adenosine 5-triphosphate] | +++ |
| Nc1ncnc2c1ncn2[C@@H]1O[C@H](COP(=O)(O)OP(=O)(O)O)[C@@H](O)[C@H]1O [Cmpd 92] | ++ |
| C=C1C(=O)O[C@@H]2C[C@@]3(C)CCC[C@H](C)C3=C[C@H]12 [Cmpd 97, Alantolactone] | ++++ |
| C=C1/C(=C\C=C2/CCC[C@]3(C)[C@@H]([C@H](C)CCCC(C)C)CC[C@@H]23)C[C@@H](O)C[C@@H]1O [Cmpd 98, Alfacalcidol] | +++ |
| Cn1c(=O)cc(N2CCC[C@@H](N)C2)n(Cc2ccccc2C#N)c1=O [Cmpd 100, Alogliptin Benzoate] | +++ |
